Assay results taken from US20140328852A1, “IMMUNOGENIC GLUTEN PEPTIDES AND USES THEREOF” (UNIVERSIDAD DE VALLADOLID, priority 2011, published 2014).

Assays:
Format in all cases: cell-based, human
autologous T lymphocytes = test: Proliferation of autologous T lymphocytes in co-culture with peptide-stimulated dendritic cells; conditions: for proliferative response of autologous T lymphocytes (in words): celiac HLA-DQ2+ and non-celiac HLA-DQ2− samples; for proliferation rate: 4 days co-culture
Experimental: FIG. 4. […] The mean and standard deviation of an experiment performed in triplicate are shown, and which is representative of three independent experiments with similar results. Each experiment was performed with an untreated celiac patient with genotype HLA-DQ2^+ and parallel to a healthy non-celiac individual HLA-DQ2^− as a control (C).
Monocyte-derived dendritic cells serve as antigen presenting cells. Stimulation experiments carried out in the present invention included a positive proliferation control (T lymphocytes cultured in the presence of monocyte-derived dendritic cells pre-activated in the presence of lipopolysaccharide, LPS) and two negative controls: CD14-fraction enriched with cultured T lymphocytes i) in basal medium and ii) in the presence of monocyte-derived dendritic cells unstimulated.
(§1) Mononuclear cells from ABO-compatible peripheral blood were isolated by centrifugation on a density gradient, and magnetic beads with anti-CD14 antibodies to separate CD14+ monocytes, that were induced for 6 days to differentiate into immature dendritic cells by IL-4 and GM-CSF (confirmed by flow cytometry) were isolated too. These cells were first stimulated for 48 hours with the 8-mer peptide (100 μg/mL, 10 μg/mL, 1 μg/mL) and other known gliadin peptides: 19-mer (100 μg/mL) and 33-mer (100 μg/mL) and then a co-culture with autologous T lymphocytes was performed (population CD14-obtained above), in which dendritic cells act as antigen presenting cells. As negative and positive controls of stimulation, a CD14-cell culture without dendritic cells (basal), and CD14-cells stimulated with lipopolysaccharide (LPS) were used respectively. After 4 days, the cell proliferation rate was calculated according to the absorbance ratio of stimulated/unstimulated dendritic cells in co-culture with autologous T lymphocytes.

[1] = system: dendritic cells derived from monocytes; test: Cytokine mRNA expression in stimulated monocyte-derived dendritic cells; conditions: dendritic cells from healthy donors, peptide 100 μg/ml, 48 hours
[2] = system: dendritic cells derived from monocytes; test: Phenotypic maturation of monocyte-derived dendritic cells (flow cytometry of membrane markers); conditions: dendritic cells from healthy controls, peptide 100 μg/mL, 48 hours
Experimental: FIG. 2. […] Shadowed histograms represent the expression of the co-stimulator markers (CD40, CD80, CD86) or activators (CD83) in dendritic cells. Empty histograms represent isotype controls. This experiment is representative of three independent experiments; each of them is performed by triplicate.
as §1

[3] = peptide 100 μg/ml, cells from celiac patients HLA-DQ2+, ratio stimulated/unstimulated dendritic cells
[4] = peptide 100 μg/ml, cells from non-celiac individuals HLA-DQ2−, ratio stimulated/unstimulated dendritic cells

“8-mer: eight amino acid gliadin peptide (SEQ ID NO: 2) generated in the gut of celiac patients by bacterial proteases (FPLQPQQP; listed as Triticum aestivum)” was tested, and the “proliferative response of autologous T lymphocytes (in words)” value (autologous T lymphocytes) was “induced a proliferative response”, the proliferation rate (autologous T lymphocytes; peptide 1 μg/ml, cells from celiac patients HLA-DQ2+) was 1.27±0.005 and the proliferation rate (autologous T lymphocytes; peptide 1 μg/ml, cells from non-celiac individuals HLA-DQ2−) was 1.04±0.039. The proliferation rate (autologous T lymphocytes; peptide 10 μg/ml, cells from celiac patients HLA-DQ2+) was 1.69±0.005, the proliferation rate (autologous T lymphocytes; peptide 10 μg/ml, cells from non-celiac individuals HLA-DQ2−) was 1.28±0.034 and the proliferation rate (autologous T lymphocytes; [3]) was 2.09±0.029. The proliferation rate (autologous T lymphocytes; [4]) was 1.51±0.108, the “expression of IL-4 mRNA” value [1] was 79 times and the “expression of IL-12p40 mRNA” value [1] was 0.4 times. For the same substance, the “membrane expression of CD40 and CD80 markers” value [2] was “increased” and the “membrane expression of CD83 or CD86” value [2] was “not”.

In the case of “19-mer: known gliadin peptide 19-mer (SEQ ID NO: 4) (LGQQQPFPPQQPYPQPQPF; listed as Triticum monococcum)”, the “proliferative response of autologous T lymphocytes (in words)” value (autologous T lymphocytes) is reported as “did not induce proliferation”, the proliferation rate (autologous T lymphocytes; [3]) is reported as 1.06±0.011 and the proliferation rate (autologous T lymphocytes; [4]) is reported as 1.03±0.039. For the same substance, the “expression of IL-4 mRNA” value [1] was 7.7 times, the “expression of IL-12p40 mRNA” value [1] was 0.4 times and the “membrane expression of CD40 and CD80 markers” value [2] was “did not affect”. For the same substance, the “membrane expression of CD83 or CD86” value [2] was “did not affect”.

“33-mer: known immunodominant α-gliadin peptide 33-mer (SEQ ID NO: 5) (LQLQPFPQPELPYPQPELPYPQPELPYPQPQPF; Gluten peptide 33-mer)” was tested, and the “proliferative response of autologous T lymphocytes (in words)” value (autologous T lymphocytes) was “did not induce proliferation”, the proliferation rate (autologous T lymphocytes; [3]) was 1.04±0.005 and the proliferation rate (autologous T lymphocytes; [4]) was 1.04±0.018. The “expression of IL-4 mRNA” value [1] was 0.001 times, the “expression of IL-12p40 mRNA” value [1] was “inhibited” and the “membrane expression of CD40 and CD80 markers” value [2] was “did not affect”. The “membrane expression of CD83 or CD86” value [2] was “did not affect”.
